What was measured:
MMP-13 (Collagenase-3) = MMP-13 (Collagenase-3) (Homo sapiens (Human), UniProt P45452); assay: MMP-13 inhibition in vitro, octapeptide substrate, HPLC; format: biochemical; settings: for inhibition at 100 µM: read-out: MMP-13 Maximum Inhibition @100 μM; for MMP-13 Ratio (IC50 test compound/IC50 standard): standard 1,10-phenanthroline
MMP-2 = MMP-2 (Homo sapiens (Human), UniProt P08253); assay: MMP-2 inhibition in vitro, octapeptide substrate, HPLC; format: biochemical; settings: for inhibition at 100 µM: read-out: MMP-2 Maximum Inhibition @100 μM; for MMP-2 Ratio (IC50 test compound/IC50 standard): standard 1,10-phenanthroline
[1] = target: MMP-9 (human leukocyte gelatinase) (Homo sapiens (Human), UniProt P14780); assay: MMP-9 inhibition in vitro, octapeptide substrate, HPLC; format: biochemical; settings: read-out: Maximum Inhibition At 100 μM compound (MMP-9)
From the text: In contrast all three chemically-modified curcumins at 100 μm final concentration inhibited gelatinase activity by 68-100% (FIG. 6 and Table 6).

[2] = Solubility in aqueous solutions; format: physicochemical; settings: comparative
human monocytes = assay: Cytotoxicity in human monocytes (MTS); format: cell-based
Procedure: Briefly, human peripheral blood monocytes (HMs) were isolated from a leukocyte concentrate by density gradient centrifugation (Lymphoprep) and the isolated HMs cultured (2 h, 37° C.) to remove non-adherent cells. […] After incubation, the proinflammatory cytokines, TNFα, […], MCP-1 and IL-6 were measured in the conditioned media by ELISA and cytotoxicity was assessed by measuring the absorbance (490 nm) of formazan produced by reduction of MTS. The HMs alone±0.1-0.5% DMSO produced minimal levels of these pro-inflammatory cytokines. However, addition of 100 ng/ml or 10 μg/ml of LPS both dramatically stimulated cytokine production.

TNF-α = assay: Inhibition of TNF-α production by LPS-stimulated monocytes; format: cell-based, human; settings: Homo sapiens, Monocyte, 18 h, read-out: % Inhibition of TNF-α produced by stimulated Monocytes with LPS @ 18 h
Procedure: Briefly, human peripheral blood monocytes (HMs) were isolated from a leukocyte concentrate by density gradient centrifugation (Lymphoprep) and the isolated HMs cultured (2 h, 37° C.) to remove non-adherent cells. The adherent HMs wore cultured for 18 h (1×10^6 cells/well, 24-well plates)±endotoxin (LPS)±different compounds dissolved in DMSO (the final concentration of DMSO in the RPMI serum-free culture media with Pen./Strep. antibiotics was no greater than 0.5%). After incubation, the proinflammatory cytokines, TNFα, […], MCP-1 and IL-6 were measured in the conditioned media by ELISA and cytotoxicity was assessed by measuring the absorbance (490 nm) of formazan produced by reduction of MTS. The HMs alone±0.1-0.5% DMSO produced minimal levels of these pro-inflammatory cytokines. However, addition of 100 ng/ml or 10 μg/ml of LPS both dramatically stimulated cytokine production.
The cytokine levels were measured by Luminex multiplex, a method that allows the simultaneous measurement of different biological markers.

MMP-2, sequence (P08253 110-660, species assumed): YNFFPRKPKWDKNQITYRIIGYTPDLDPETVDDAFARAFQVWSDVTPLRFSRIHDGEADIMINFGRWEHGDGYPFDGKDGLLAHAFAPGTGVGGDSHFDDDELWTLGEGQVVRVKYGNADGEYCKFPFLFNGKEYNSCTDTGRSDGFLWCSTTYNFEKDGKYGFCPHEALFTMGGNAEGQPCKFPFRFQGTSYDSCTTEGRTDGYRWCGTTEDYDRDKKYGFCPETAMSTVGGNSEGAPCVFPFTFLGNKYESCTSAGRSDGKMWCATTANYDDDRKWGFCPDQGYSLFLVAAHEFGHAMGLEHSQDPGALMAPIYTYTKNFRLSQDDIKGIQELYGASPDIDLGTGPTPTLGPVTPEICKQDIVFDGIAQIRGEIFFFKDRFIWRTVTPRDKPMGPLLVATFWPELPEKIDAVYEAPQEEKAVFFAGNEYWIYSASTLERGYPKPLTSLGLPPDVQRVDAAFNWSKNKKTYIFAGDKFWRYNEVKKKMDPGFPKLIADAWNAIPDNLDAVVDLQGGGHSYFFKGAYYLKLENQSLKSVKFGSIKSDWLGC
MMP-9 (human leukocyte gelatinase), sequence (P14780 94-707): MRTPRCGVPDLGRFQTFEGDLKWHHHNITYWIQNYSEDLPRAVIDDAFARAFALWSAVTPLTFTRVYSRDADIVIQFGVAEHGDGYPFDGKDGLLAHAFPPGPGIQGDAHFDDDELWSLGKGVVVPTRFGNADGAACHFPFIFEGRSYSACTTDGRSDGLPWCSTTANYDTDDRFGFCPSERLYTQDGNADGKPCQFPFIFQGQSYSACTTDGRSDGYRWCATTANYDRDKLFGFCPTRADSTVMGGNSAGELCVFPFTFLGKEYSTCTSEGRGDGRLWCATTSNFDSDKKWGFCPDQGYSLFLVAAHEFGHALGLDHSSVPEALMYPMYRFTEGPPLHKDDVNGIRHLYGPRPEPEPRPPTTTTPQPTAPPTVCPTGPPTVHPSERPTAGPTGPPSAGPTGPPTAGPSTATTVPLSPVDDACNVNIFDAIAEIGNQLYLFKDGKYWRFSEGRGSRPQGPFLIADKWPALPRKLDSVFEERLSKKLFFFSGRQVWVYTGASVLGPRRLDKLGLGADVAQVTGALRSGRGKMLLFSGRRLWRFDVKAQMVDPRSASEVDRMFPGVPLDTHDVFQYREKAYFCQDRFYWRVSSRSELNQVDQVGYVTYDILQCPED

SMILES	inhibition at 100 µM (MMP-13 (Collagenase-3))	MMP-13 Ratio (IC50 test compound/IC50 standard) (MMP-13 (Collagenase-3))	inhibition at 100 µM (MMP-2)	MMP-2 Ratio (IC50 test compound/IC50 standard) (MMP-2)	inhibition at 100 µM [1]	Solubility [2]	other results
COC(=O)C(C(=O)/C=C/c1ccccc1)C(=O)/C=C/c1ccccc1 [Compound 2]	–	–	–	–	–	improved solubility	–
COc1cc(/C=C/C(=O)CC(=O)/C=C/c2ccc(O)c(OC)c2)ccc1O [Curcumin, curcumin]	–	–	54%	–	58%	insoluble	Cytotoxicity Monocytes @ 5 h incubation (human monocytes; 10 uM): 10 uM - 0%; Cytotoxicity Monocytes @ 18 h incubation (human monocytes; 10 uM): 10 uM - 0%; Cytotoxicity Monocytes @ 5 h incubation (human monocytes; 20 uM): 20 uM - 20%; Cytotoxicity Monocytes @ 18 h incubation (human monocytes; 20 uM): 20 uM - 20%; Cytotoxicity Monocytes @ 5 h incubation (human monocytes; 50 uM): 50 uM - 50%; Cytotoxicity Monocytes @ 18 h incubation (human monocytes; 50 uM): 50 uM - 77%; Cytotoxicity in monocyte culture (human monocytes; 50 and 100 μM, with some precipitation): significant cytotoxicity; inhibition at 10 µM (TNF-α; 10 uM): 0%; inhibition at 20 µM (TNF-α; 20 uM): 0%; inhibition at 50 µM (TNF-α; 50 uM): 80%
c1cnc2c(c1)ccc1cccnc12 [1,10-phenanthroline, 1,10-O-phenanthroline, reference compound]	100%	1.0	60%	1.0	100%	–	–

Further lines, with some results ahead:

inhibition at 100 µM (MMP-13 (Collagenase-3))	MMP-13 Ratio (IC50 test compound/IC50 standard) (MMP-13 (Collagenase-3))	inhibition at 100 µM (MMP-2)	MMP-2 Ratio (IC50 test compound/IC50 standard) (MMP-2)	SMILES	inhibition at 100 µM [1]	Solubility [2]	other results
77%	<0.3	45%	1.8	O=C(/C=C/c1ccc(O)cc1)C(C(=O)/C=C/c1ccc(O)cc1)C(=O)Nc1ccccc1 [Compound 7, 1,7-Bis(4-hydroxyphenyl)-4-N-phenylaminocarbonylhepta-1E,6E-dien-3,5-dione]	–	–	–
50%	62.5	36%	>3.6	COc1cc(/C=C/C(=O)CC(=O)/C=C/c2ccc(N(C)C)cc2)ccc1O [Compound 4]	100%	–	–
100%	–	53%	–	COc1cc(/C=C/C(=O)C(C(=O)/C=C/c2ccc(O)c(OC)c2)C(=O)Nc2ccccc2)ccc1O [Compound 6, 1,7-Bis(4-hydroxy-3-methoxyphenyl)-4-N-phenylaminocarbonylhepta-1E,6E-dien-3,5-dione]	–	–	–
53%	11.3	–	–	CN(C)c1ccc(/C=C/C(=O)C(C(=O)/C=C/c2ccc(N(C)C)cc2)C(=O)Nc2ccccc2)cc1 [Compound 8, 1,7-Bis(4-dimethylaminophenyl)-4-N-phenylaminocarbonylhepta-1E,6E-dien-3,5-dione]	–	–	–
76%	2.0	60%	1.0	COC(=O)C(C(=O)/C=C/c1ccc(O)cc1)C(=O)/C=C/c1ccc(O)cc1 [Compound 3, 1,7-Bis(4-hydroxyphenyl)-4-methoxycarbonylhepta-1E,6E-dien-3,5-dione]	68%	more soluble in aqueous solutions than compound 1	–

— patent publication US10669227B2 (THE RESEARCH FOUNDATION OF STATE UNIVERSITY OF NEW YORK, priority 2009, dated 2020)
